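Cells were grown in 96-well plates and exposed to each compound for 48 hours at five concentrations; endpoints were interpolated linearly between bracketing concentrations, or set to the highest concentration if not reached. GI50 is the concentration that inhibits growth by half.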 Activity calls are given as the source filed them. Rule as the data show it: active = GI50 up to about 1.1 µM and inactive = higher.
Columns and labels:
Test in all cases: NCI anticancer screen, dose series, 48 h
786-0 = system: 786-0
A498 = system: A498
A549 = system: A549
ACHN = system: ACHN
CAKI-1 = system: CAKI-1
CCRF-CEM = system: CCRF-CEM
COLO 205 = system: COLO 205
DLD-1 = system: DLD-1
EKVX = system: EKVX
HCC 2998 = system: HCC 2998
HCT-116 = system: HCT-116
HCT-15 = system: HCT-15
HL-60 = system: HL-60
HOP-18 = system: HOP-18
HOP-62 = system: HOP-62
HOP-92 = system: HOP-92
HT-29 = system: HT-29
IGROV-1 = system: IGROV-1
K562 = system: K562
KM-20L2 = system: KM-20L2
KM12 = system: KM12
LOX IMVI = system: LOX IMVI
LXFL 529 = system: LXFL 529
M14 = system: M14
M19-MEL = system: M19-MEL
MOLT-4 = system: MOLT-4
Malme-3M = system: Malme-3M
NCI-H226 = system: NCI-H226
NCI-H23 = system: NCI-H23
NCI-H460 = system: NCI-H460
NCI-H522 = system: NCI-H522
OVCAR-3 = system: OVCAR-3
OVCAR-5 = system: OVCAR-5
OVCAR-8 = system: OVCAR-8
RPMI-8226 = system: RPMI-8226
RXF 393 = system: RXF 393
SF-295 = system: SF-295
SF-539 = system: SF-539
SK-MEL-5 = system: SK-MEL-5
SK-OV-3 = system: SK-OV-3
SN12C = system: SN12C
SNB-19 = system: SNB-19
SNB-75 = system: SNB-75
SR = system: SR
SW-620 = system: SW-620
TK-10 = system: TK-10
U-251 = system: U-251
UACC-257 = system: UACC-257
UACC-62 = system: UACC-62
UO-31 = system: UO-31

Compound: Cc1cccc(C)c1NC(=O)CCC(=O)NC(N)=S
- GI50 (786-0): > 100 µM (inactive)
- GI50 (A498): > 100 µM (inactive)
- GI50 (A549): > 100 µM (inactive)
- GI50 (ACHN): > 100 µM (inactive)
- GI50 (CAKI-1): > 100 µM (inactive)
- GI50 (CCRF-CEM): > 100 µM (inactive)
- GI50 (COLO 205): > 100 µM (inactive)
- GI50 (DLD-1): > 100 µM (inactive)
- GI50 (EKVX): > 100 µM (inactive)
- GI50 (HCC 2998): > 100 µM (inactive)
- GI50 (HCT-116): > 100 µM (inactive)
- GI50 (HCT-15): > 100 µM
- GI50 (HL-60): > 100 µM (inactive)
- GI50 (HOP-18): > 100 µM (inactive)
- GI50 (HOP-62): > 100 µM (inactive)
- GI50 (HOP-92): > 100 µM (inactive)
- GI50 (HT-29): > 100 µM (inactive)
- GI50 (IGROV-1): > 100 µM (inactive)
- GI50 (K562): > 100 µM (inactive)
- GI50 (KM-20L2): > 100 µM (inactive)
- GI50 (KM12): > 100 µM (inactive)
- GI50 (LOX IMVI): > 100 µM (inactive)
- GI50 (LXFL 529): > 100 µM (inactive)
- GI50 (M14): > 100 µM (inactive)
- GI50 (M19-MEL): > 100 µM (inactive)
- GI50 (MOLT-4): > 100 µM (inactive)
- GI50 (Malme-3M): > 100 µM (inactive)
- GI50 (NCI-H226): > 100 µM (inactive)
- GI50 (NCI-H23): > 100 µM (inactive)
- GI50 (NCI-H460): > 100 µM (inactive)
- GI50 (NCI-H522): > 100 µM (inactive)
- GI50 (OVCAR-3): > 100 µM (inactive)
- GI50 (OVCAR-5): > 100 µM (inactive)
- GI50 (OVCAR-8): > 100 µM (inactive)
- GI50 (RPMI-8226): > 100 µM (inactive)
- GI50 (RXF 393): > 100 µM (inactive)
- GI50 (SF-295): > 100 µM (inactive)
- GI50 (SF-539): > 100 µM (inactive)
- GI50 (SK-MEL-5): > 100 µM (inactive)
- GI50 (SK-OV-3): > 100 µM (inactive)
- GI50 (SN12C): > 100 µM (inactive)
- GI50 (SNB-19): > 100 µM (inactive)
- GI50 (SNB-75): > 100 µM (inactive)
- GI50 (SR): > 100 µM (inactive)
- GI50 (SW-620): > 100 µM (inactive)
- GI50 (TK-10): > 100 µM (inactive)
- GI50 (U-251): > 100 µM (inactive)
- GI50 (UACC-257): > 100 µM (inactive)
- GI50 (UACC-62): > 100 µM (inactive)
- GI50 (UO-31): > 100 µM (inactive)

Reference: ChEMBL document CHEMBL1201862, “PubChem BioAssay data set” (2004)
